US9206129B2, “Agent for treatment of eye diseases” (Daito Chemix Corporation, priority 2010, dated 2015)
Counter-ions that a name gives are not always drawn.

How the values were obtained:
DBA/2J mice = test: Intraocular pressure in DBA/2J mice (TonoLab tonometer); format: in vivo, mouse; settings: 50 mg/kg/day orally
Procedure: As a model of secondary angle-closure glaucoma, the DBA/2J mice (Anderson, M. G. et al; BMC Genetics (2001)) were employed. The mice were administered orally with 50 mg/kg/day of the compound of Synthetic Example 32 or 53 (Compound 32 or 53, respectively) daily after two months of age. The tomographs of retinae (n=22 to 32 eyes) were obtained in the 6, 7, 8, 9 and 10-month-old mice with the optical coherence tomography (OCT) (Multiline OCT, Heidelberg Engineering) (FIGS. 1 and 2: The OCT images of the retinae of the 8-month-old mice, FIG. 3: The evaluation of the optic nerve cupping in the 7 to 10-month-old mice). The mice in the control group were administered orally with the physiological saline. The eyeballs were enucleated at 10 months of age, and retinae were observed after hematoxylin-eosin (HE) staining (FIG. 4: The micrographs of retinae of the […] mice after HE staining). The thickness of the inner retinal layers and the nerve fiber layers was determined from the OCT images (FIG. 5: The thickness of the nerve fiber layers of the 7-month-old mice; FIG. 6: The thickness of the inner retinal layers of the 8-month-old mice; FIG. 7: The time course of the thickness of the inner retinal layers). The thickness of the inner retinal layer is a sum of the thickness of the nerve fiber and ganglion neuron layer and the inner plexiform layer.
Besides, the intraocular pressure was measured with TonoLab (M. E. Technica) tonometer under general anesthesia monthly from 2 months of age. The mean intraocular pressure at 4, 5, 6, 7 and 8 months of age was 13.6, 14.0, 11.3, 16.3 and 12.8 mmHg in the control group administered with the physiological saline, 13.0, 15.6, 12.0, 12.3 and 14.4 mmHg in the group administered with Compound 32, 14.6, 16.0, 12.8, 13.0 and 14.4 mmHg in the group administered with Compound 53.

rd10 mice = test: rd10 mice, model of retinitis pigmentosa: OCT, electroretinogram, HE-stained retinae; format: in vivo, mouse; settings: 33-day-old rd10 mice, 50 mg/kg/day intraperitoneally
Procedure: As a model of retinitis pigmentosa, the rd10 mice (B6.CXB1-Pde6b^rd10/J (purchased from Jackson Laboratory (Bar Harbor, Me.), Chang B. et al; Vision Res (2007)) were employed. In the mouse model, the rod photoreceptors are completely disappeared within 2 months after birth. The mice were administered intraperitoneally with 50 mg/kg/day of the compound of Synthetic Example 32 or 53 (Compound 32 or 53, respectively) daily from 7 days of age. The tomographs of the retinae were obtained in the 21, 25, 29 and 33-day-old mice with the optical coherence tomography (OCT) (FIGS. 15 and 17: The OCT images of the mice administered with Compound 32 at 25 and 29 days of age; FIGS. 19 and 21: The OCT images of the mice administered with Compound 53 at 25 and 29 days of age). The 21-, 25-, 29- and 33-day-old mice were subjected to dark adaptation and given 3.0 cd/s/m^2 of photic stimulations via a LED-type corneal-contact electrode (Mayo) by LS-W (Mayo). The electroretinogram (ERG) was recorded and analyzed with PowerLab 2/25 (AD Instruments, New South Wales, Australia) to measure the b-wave amplitudes (N=27-37 eyes) (FIGS. 16, 18, 24: The ERG of the 25-, 29- and 33-day-old mice administered with Compound 32; FIGS. 20, 22, 26: The ERG of the 25-, 29- and 33-day-old mice administered with Compound 53). The mice in the control group were administered orally with the physiological saline. […]

Mouse VCP = Mouse VCP (Mus musculus (Mouse), UniProt Q01853); test: VCP ATPase inhibitory activity; format: biochemical; settings: ATPase activity of purified VCP, 100 μM [γ-32P]ATP, 37° C., 10 minutes
Mouse VCP, sequence (Q01853 whole entry): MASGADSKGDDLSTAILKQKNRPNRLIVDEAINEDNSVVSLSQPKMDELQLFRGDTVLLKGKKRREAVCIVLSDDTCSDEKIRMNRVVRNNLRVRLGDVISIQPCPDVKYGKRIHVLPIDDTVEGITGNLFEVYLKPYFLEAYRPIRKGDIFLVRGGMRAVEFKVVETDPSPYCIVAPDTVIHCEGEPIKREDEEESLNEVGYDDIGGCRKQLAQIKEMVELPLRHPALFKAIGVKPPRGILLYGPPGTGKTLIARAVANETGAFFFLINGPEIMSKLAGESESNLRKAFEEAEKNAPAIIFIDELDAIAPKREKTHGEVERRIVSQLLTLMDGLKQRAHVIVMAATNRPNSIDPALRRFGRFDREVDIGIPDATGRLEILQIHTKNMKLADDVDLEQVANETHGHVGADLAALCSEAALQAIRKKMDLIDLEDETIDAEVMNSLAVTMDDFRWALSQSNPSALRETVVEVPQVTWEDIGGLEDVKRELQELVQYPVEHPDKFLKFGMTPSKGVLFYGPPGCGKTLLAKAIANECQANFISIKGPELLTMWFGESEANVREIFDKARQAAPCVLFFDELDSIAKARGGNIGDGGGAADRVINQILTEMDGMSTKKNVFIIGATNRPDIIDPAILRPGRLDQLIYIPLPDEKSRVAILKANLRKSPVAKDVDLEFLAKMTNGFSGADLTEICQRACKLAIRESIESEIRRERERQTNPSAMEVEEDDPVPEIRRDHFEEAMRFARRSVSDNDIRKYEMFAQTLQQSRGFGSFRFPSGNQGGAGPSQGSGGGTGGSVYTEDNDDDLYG
Procedure: Mouse VCP cDNA (the amino acid sequence is completely identical among mouse, rat and human) is added with a DNA sequence corresponding to a histidine tag at the amino-terminal, subcloned into a baculovirus vector pVL1392 (BD Bioscience), and expressed in Sf-9 insect cells. The protein is purified with a nickel column. After the purification the concentration of the protein is adjusted to […] and the protein is stored in a solution containing 50 mM TrisCl pH 8.0, 5 mM EDTA, 10% glycerol, and 15 mM DTT at 4° C. […] The enzyme reaction is stopped with addition of 200 μL of an ice-cold solution containing 7% TCA and 1 mM K2HPO4. […] The reaction tube is centrifuged for 5 minutes at 20,000 g to separate the aqueous layer and the organic layer, 200 μL of the organic layer is taken, and the beta ray radiated from the liberated phosphate is quantified with liquid scintillation counter. By measuring the ATPase activity in the presence of the test substance at various concentrations, ATPase inhibitory activity of the test substance is measured. […]
The ATPase activity was determined as follows. […]
By measuring the ATPase activity in the presence of the test substance at various concentrations, ATPase inhibitory activity of the test substance was measured. […]

Structure (SMILES)	mean intraocular pressure (DBA/2J mice; 4 months of age) [mmHg]	mean intraocular pressure (DBA/2J mice; 5 months of age) [mmHg]	mean intraocular pressure (DBA/2J mice; 6 months of age) [mmHg]	mean intraocular pressure (DBA/2J mice; 7 months of age) [mmHg]	mean intraocular pressure (DBA/2J mice; 8 months of age) [mmHg]	layers of the photoreceptor cells in the retinal section (rd10 mice) [layers]	IC50 (Mouse VCP) [nM]
CCCCOc1c(C=O)cc(C)cc1-c1ccc(/N=N/c2cc(S(=O)(=O)[O-])c3ccccc3c2N)cn1.[Na+] [Example 53, 4-amino-3-[6-(3-formyl-2-butoxy-5-methylphenyl)pyridine-3-ylazo]naphthalene-1-sulfonic acid sodium salt]	14.6	16.0	12.8	13.0	14.4	4 to 5	–
Cc1cc(F)ccc1-c1ccc(/N=N/c2cc(S(=O)(=O)[O-])c3ccccc3c2N)cn1.[Na+] [Example 32, 4-amino-3-[6-(4-fluoro-2-methylphenyl)pyridine-3-ylazo]naphthalene-1-sulfonic acid sodium salt]	13.0	15.6	12.0	12.3	14.4	4 to 5	–
Nc1c(/N=N/c2ccc(-c3ccccc3OCCCC(=O)O)nc2)cc(S(=O)(=O)O)c2ccccc12 [Example 43, 4-{2-[5-(1-amino-4-sulfonaphthalene-2-ylazo)pyridine-2-yl]phenoxy}butyric acid disodium salt]	–	–	–	–	–	–	378
